Values joined by “and” are separate entries in the source; they are usually repeats but may differ in a detail not shown here. Equal entries are not always repeated. *1 amine or outer side, *2 acyl side, *3 side chain or, on linkers, in order; H or OH if unused. Where a SMILES comes first, the peptide text is derived from it. Bridges are numbered along the chain shown (N, C = ends). Roman numbers before positions name the chains, in order. [ ]: non-standard residue; d: D form. Actinocin(9to1) = Cc1c2oc3c(C)ccc(C(=O)[*:1])c3nc-2c(C(=O)[*:2])c(N)c1=O; NMeV = CN[C@H](C(=O)O)C(C)C; Sar = CNCC(=O)O
What was measured:
[1] = test system: latently HIV-1 infected EF7 cells; experiment: HIV-1 reactivation in latently HIV-1 infected EF7 T cells (converse sense integration); assay type: cell-based; conditions: TNF-α after 4 ng/ml dactinomycin for 18 hours
Protocol: FIGS. 13A-B show the effect of dactinomycin on latent infection as a function of the orientation of integration relative to the direction of host-gene transcription. HIV-1 can integrate in the same transcriptional orientation as the host-gene or in the converse sense. Two latently HIV-1 infected T cell lines, which were determined to have HIV-1 integrated in the same sense orientation (CA5 cells) (FIG. 13A) and in the converse sense orientation (EF7 cells) (FIG. 13B) were used. For either cell line, the host-gene name, the position of integration and the chromosome number is given. For either T cell line, reactivation levels achieved by TNF-α treatment alone or by TNF-α stimulation following pretreatment with 4 ng/ml dactinomycin for 18 hours are shown. Reactivation levels were determined using flow cytometric analysis for GFP expression. The gray dotted line represents maximum achievable reactivation levels using PMA.

[2] = test system: chronically actively infected T cell lines JNLG#35 and JNLG#44; experiment: Active HIV-1 transcription in chronically actively infected GFP-reporter T cells (GFP MCF); assay type: cell-based; conditions: 48 hours after addition
Protocol: Changes in HIV-1 transcription levels were determined after 48 hours by measuring GFP mean channel fluorescence intensity (GFP MCF). GFP MCF was plotted over the drug concentration for dactinomycin (FIG. 12A), the DNA intercalators daunorubicin (DM) (FIG. 12B) and rebeccamycin (RM) (FIG. 12C), as well as the transcription inhibitors ICRF-193 (FIG. 12D), DRB (FIG. 12E) and α-amanitin (FIG. 12F). The size of symbols indicates the respective cell viability in the sample (size range adjusted to 5-95%).
For this purpose, each of the compounds was titrated over a relevant range of concentrations on two chronically actively infected T cell lines (JNLG#35 and JNLG#44). These clonal cell lines are infected with a GFP-reporter virus. Forty eight hours after addition of the compounds, the effect of each compound on HIV-1 transcription was determined by flow cytometric analysis quantifying GFP mean channel fluorescence intensity (MCF).

[3] = test system: latently HIV-2 infected J2574 reporter T cells (HIV-2 7312A); experiment: Reactivation of latent HIV-2 infection in J2574 reporter T cells; assay type: cell-based
Protocol: J2574 reporter T cells were infected with HIV-2 7312A and a latently infected cell population was established (>90% latently infected cells). The cell population was then pretreated with varying concentrations of dactinomycin (0-8 ng/ml) for 18 hours and then either left untreated (C) or stimulated with a sub-optimal dose of HRF, which by itself triggered reactivation in 10% of the cells. Reactivation levels were determined 24 hours post HRF activation by quantifying the level of GFP-positive cells using flow cytometric analysis.
J2574 reporter T cells were generated by retrovirally transducing Jurkat T cells with a HIV-1 reporter construct (p2574) in which the HIV-1 LTR controls the expression of GFP. The HIV-1 LTR and the GFP gene are separated by a 2,500 base pair (bp) spacer element. Lentiviral particles were produced by transfecting 293T cells with p2574 and supplying gag-pol-rev-tat in trans. VSV-G was used as viral envelope protein. Following lentiviral transduction of Jurkat cells, all cells that spontaneously expressed GFP were removed by cell sorting. The GFP-negative population was then activated with PMA to identify all cells that would harbor an inducible LTR-GFP-LTR integration event. Cells that turned GFP-positive following stimulation were again selected by cell sorting. GFP expression in this population ceased after a few days leaving a population of GFP-negative reporter cells. The amount of founder cells for this population is calculated to represent >50,000 individual integration events.
To determine the ability of dactinomycin to prime a latent HIV-2 infection, a latently HIV-2 infected population of GFP reporter T cells were tested. Briefly, to create the latent HIV-2 infected population, J2574 reporter cells were infected with HIV-2 7312A and a population of latently HIV-2 infected cells was generated by removing the actively infected, GFP-positive cells using a fluorescence activated cell sorter.

[4] = test system: latently HIV-1 infected J89GFP T cells; experiment: HIV-1 reactivation in latently HIV-1 infected J89GFP T cells (flow cytometry / HTS); assay type: cell-based
Protocol: (§1) Infection levels in the cell cultures were monitored by flow cytometric (FCM) analysis of GFP expression. FCM analysis was performed on a GUAVA EasyCyte (GUAVA Technologies, Inc.; Millipore; Billerica, Mass.) and a BD FACSCalibur or a LSR11 (Becton & Dickinson; Franklin Lakes, N.J.). Cell sorting experiments were performed using a FACSAria™ Flow Cytometer (Becton&Dickinson). Data analysis was performed using either CellQuest (Becton&Dickinson) or GUAVA Express (GUAVA Technologies, Inc.).

[5] = test system: latently HIV-1 infected CA5 T cells
Protocol: CA5 T cells were pretreated with increasing concentrations of dactinomycin (DM) (FIG. 11A), the DNA intercalator daunorubicin (DR) (FIG. 11B), or the transcription inhibitors DRB (FIG. 11 C) and α-amanitin (FIG. 11D) (concentrations indicated). The cells were then left unstimulated (white circles) or activated with a sub-optimal concentration of HRF (black circles). Reactivation levels were determined as the percentage of GFP-positive cells 24 hours after stimulation. Viability of the cells correlates with the size of the symbol (size range adjusted to 5-95%).
Infection levels in the cell cultures were monitored by flow cytometric analysis of EGFP expression. Flow cytometric analysis was performed on a GUAVA EasyCyte (Millipore; Billerica, Mass.), or a LSRII (Becton & Dickinson; Franklin Lakes, N.J.).
Bacteria from various sources were isolated on TSA II agar plates containing 5% sheep blood. Bacterial isolates were then grown in RPMI 1640 medium supplemented with 10% FBS. After two days of incubation at 37° C. bacteria were pelleted and resuspended in RPMI medium to an optical density (OD600) of 8, aliquoted and frozen at −80° C. Unless otherwise indicated, Massilia timonae was grown in RPMI 1640 medium supplemented with 10% FBS. Typically, medium was inoculated with Massilia timonae from frozen stocks to an OD600 of 0.01. After 48 hours at 37° C., the culture was centrifuged at 3200 g to separate bacteria from the culture medium. Bacteria were resuspended in fresh medium to an OD600 of 8 and frozen to be used as references and stock cultures. The supernatant was then centrifuged at 10,000 g for 20 minutes and sterilized by passage through an 0.2 μm PVDF filter with low protein binding ability. HRF activity was determined by its ability to reactivate latent HIV-1 infection in CA5 cells. Only supernatants of which 6 μl reactivated infection in at least 60% of CA5 cells were used to study HRF properties.
as §1
To identify the optimal concentration of dactinomycin, CA5 T cells were pretreated with increasing concentrations of dactinomycin (0.0001 and 1 μg/ml), and then left untreated or stimulated with a sub-optimal concentration of HRF or TNF-α. […] Twenty four hours after activator addition, levels of HIV-1 reactivation were determined as the percentage of GFP-positive cells using flow cytometric analysis, which allowed for the simultaneous determination of cell viability.

[6] = test system: latently HIV-1 infected monocytic THP89GFP cells; experiment: HIV-1 reactivation in latently HIV-1 infected monocytic THP89GFP cells; assay type: cell-based
[7] = test system: latently HIV-1 infected reporter T cell lines (5F3, 8E12, CA5 and 12D4); experiment: HIV-1 reactivation in latently HIV-1 infected reporter T cell lines (EGFP, flow cytometry); assay type: cell-based
Protocol: FIGS. 1A and 1B show culture supernatants from Massilia timonae reactivate latent HIV-1 infection. […] Untreated control cells and HRF-treated cells were subjected to flow cytometric analysis to determine enhanced green fluorescent protein (EGFP) expression as a direct and quantitative marker of HIV-1 expression 24 hours post stimulation. FSC/SSC dot plots are represented to evaluate cell viability as a function of changes in the FSC (cell size)—SSC (granularity) phenotype of the cells. FIG. 1B is a histogram showing the reproducibility of the observed HIV-1 reactivation. Three independent preparations of HRF (batches HRF1-3) on four different latently infected T cell lines (5F3, 8E12, CA5 and 12D4) were tested. The percentage of EGFP positive cells following stimulation is depicted in the histogram. Cell culture supernatants of Pseudomonas aeruginosa cultures, grown under similar conditions, were used as specificity controls.

[8] = biological target: T1, positive transcription elongation factor (P-TEFb), a complex of CDK9 and Cyclin T1 (UniProt P50750 1-372; O60563 1-726); experiment: glycerol gradient (10-45%) sedimentation of J89GFP cell lysates, Western blot of fractions with anti-CDK9 and anti-HEXIM-1
T1 construct: also called CDK9/CycT1; small complex
T1 sequence (P50750 whole entry, chain 1 of 2): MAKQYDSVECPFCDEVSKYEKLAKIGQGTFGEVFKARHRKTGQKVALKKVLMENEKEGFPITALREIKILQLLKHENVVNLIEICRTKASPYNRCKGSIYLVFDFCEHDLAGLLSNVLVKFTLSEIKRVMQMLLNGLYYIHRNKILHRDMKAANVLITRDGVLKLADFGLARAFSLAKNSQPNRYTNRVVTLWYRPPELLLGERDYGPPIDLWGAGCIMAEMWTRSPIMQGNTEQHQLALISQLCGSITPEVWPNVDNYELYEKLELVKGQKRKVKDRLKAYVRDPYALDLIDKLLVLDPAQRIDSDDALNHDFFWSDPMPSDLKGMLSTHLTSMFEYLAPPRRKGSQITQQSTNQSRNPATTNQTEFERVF
T1 sequence (O60563 whole entry, chain 2 of 2): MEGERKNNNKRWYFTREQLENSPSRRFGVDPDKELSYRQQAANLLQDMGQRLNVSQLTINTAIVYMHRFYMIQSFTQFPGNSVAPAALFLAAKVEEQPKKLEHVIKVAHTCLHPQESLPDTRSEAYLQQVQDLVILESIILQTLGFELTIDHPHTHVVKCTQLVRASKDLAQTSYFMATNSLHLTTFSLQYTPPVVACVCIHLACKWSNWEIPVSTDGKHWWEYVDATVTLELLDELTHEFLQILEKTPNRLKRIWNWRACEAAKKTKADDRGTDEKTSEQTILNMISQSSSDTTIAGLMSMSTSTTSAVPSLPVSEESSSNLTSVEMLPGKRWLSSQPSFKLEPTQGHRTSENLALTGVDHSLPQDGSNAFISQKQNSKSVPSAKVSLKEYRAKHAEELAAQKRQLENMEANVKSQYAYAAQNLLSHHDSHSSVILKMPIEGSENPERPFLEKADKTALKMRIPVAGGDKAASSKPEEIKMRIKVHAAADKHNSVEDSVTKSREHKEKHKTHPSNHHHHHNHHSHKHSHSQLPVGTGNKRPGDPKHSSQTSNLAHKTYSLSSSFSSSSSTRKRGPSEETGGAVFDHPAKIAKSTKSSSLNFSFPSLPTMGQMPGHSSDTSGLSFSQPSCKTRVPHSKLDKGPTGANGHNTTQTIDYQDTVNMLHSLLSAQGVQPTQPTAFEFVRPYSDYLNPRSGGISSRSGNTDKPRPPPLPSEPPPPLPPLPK
Protocol: Each gradient fraction was separated on a 10% SDS-PAGE gel and transferred by Western blot. […] Band densities were determined using ImageJ and are presented as relative band density. […] Band densities were determined using ImageJ and are presented as relative band density.
Ten million J89GFP or CA5 T cells were left untreated or treated with 0.004 μg/mL, […] 1 μg/mL dactinomycin for 18 hours or 1 hour, respectively. Cells were washed twice with cold PBS, then lysed for 30 minutes on ice in lysis buffer (0.5% TritonX100, 20 mM HEPES (pH7.9), 150 mM NaCl, 20 mM KCl, 2 mM MgCl2, 1 mM DTT, 0.2 mM EDTA, and protease inhibitor cocktail (P8340; SIGMA)), followed by centrifugation at 14,000 rpm for 10 minutes. The same amount of protein lysate was fractionated on 5 ml of a 10-45% glycerol gradient in lysis buffer in a SW-Ti55 rotor (Beckman Coulter; Miami, Fla.) for 16 hours at 45,000 rpm. Fractions were resolved on 10% SDS-PAGE and transferred to polyvinylidene fluoride membrane. The antibodies used for Western blotting were rabbit anti-Cdk9 (sc-484; Santa Cruz Biotechnology; Santa Cruz, Calif.) and rabbit anti-HEXIM1 (ab25388; Abcam; Cambridge, Mass.), respectively. […]

Cc1c2oc3c(C)ccc(C(=O)N[C@@H]4C(=O)N[C@H](C(C)C)C(=O)N5CCC[C@H]5C(=O)N(C)CC(=O)N(C)[C@@H](C(C)C)C(=O)O[C@@H]4C)c3nc-2c(C(=O)N[C@@H]2C(=O)N[C@H](C(C)C)C(=O)N3CCC[C@H]3C(=O)N(C)CC(=O)N(C)[C@@H](C(C)C)C(=O)O[C@@H]2C)c(N)c1=O [dactinomycin] (I: T[dV]P[Sar][NMeV] / II: T[dV]P[Sar][NMeV]; ester I:1-I:C, II:1-II:C; linker I:N-II:N via Actinocin(9to1))
priming effect, virus integrated in converse transcriptional orientation [1]: exerted its priming effect in each integration scenario
effect on active HIV-1 infection / transcription (GFP MCF) [2]: without boosting active HIV-1 infection
effect on active HIV-1 infection / transcription (GFP MCF) ([2]; listed as Dactinomycin): did not boost active infection, but rather inhibited active infection
concentration range of efficient priming of latent HIV-2 infection ([3]; 18 hours pretreatment, then sub-optimal HRF): 2 to 8 ng/mL
HIV-2 reactivation levels on costimulation ([3]; dactinomycin pretreatment plus sub-optimal HRF): up to 90%
priming for reactivation in combination with sub-optimal TNF-α ([4]; 18 hours pretreatment): potently primed latent HIV-1 infection for reactivation
HIV-1 reactivating capacity by itself ([4]; no activator): did not exhibit HIV-1 reactivating capacity by itself
concentration at which it starts to act as an inhibitor of HIV-1 expression and reactivation (onset of drug toxicities) [5]: ≥ 10 ng/mL
priming effects with low concentrations of TNF-α or PMA as reactivating agents [5]: also observed
concentration of optimal priming activity ([5]; 18 hours pretreatment, then sub-optimal HRF or TNF-α): about 4 ng/ml and ~3.18 nM
priming effect, virus integrated in same transcriptional orientation as host-gene ([5]; TNF-α after 4 ng/ml dactinomycin for 18 hours): exerted its priming effect in each integration scenario
priming effect on HIV-1 reactivation by sub-optimal dose of HRF ([5]; pretreatment with increasing concentrations, then sub-optimal HRF): strong priming effect
lowest concentration at which a priming effect was observed ([5]; then sub-optimal HRF or TNF-α): 0.5 ng/mL

lipopolysaccharide
reactivation of latent HIV-1 infection [6]: reactivated HIV-1 infection
reactivation of latent HIV-1 infection [7]: only reactivated HIV-1 infection in the latently HIV-1 infected monocytic THP89GFP cells

B1: HEXIM-1 (other, UniProt O94992 1-359, looked up)
chain: MAEPFLSEYQHQPQTSNCTGAAAVQEELNPERPPGAEERVPEEDSRWQSRAFPQLGGRPGPEGEGSLESQPPPLQTQACPESSCLREGEKGQNGDDSSAGGDFPPPAEVEPTPEAELLAQPCHDSEASKLGAPAAGGEEEWGQQQRQLGKKKHRRRPSKKKRHWKPYYKLTWEEKKKFDEKQSLRASRIRAEMFAKGQPVAPYNTTQFLMDDHDQEEPDLKTGLYSKRAAAKSDDTSDDDFMEEGGEEDGGSDGMGGDGSEFLQRDFSETYERYHTESLQNMSKQELIKEYLELEKCLSRMEDENNRLRLESKRLGGDDARVRELELELDRLRAENLQLLTENELHRQQERAPLSKFGD
binding result [8]: binds

Source: patent US20130096054A1, “LATENT HUMAN IMMUNODEFICIENCY VIRUS REACTIVIATION” (priority 2010, published 2013)
